≈ marks a conversion by molar mass, not a printed value.
Columns and labels:
[1] = test system: T1, Streptococcus pneumoniae PRSP F3983; test: microbe, parasite or virus in culture; parameters: MIC test of isolated compounds on penicillin-resistant Streptococcus pneumoniae F3983
T1 construct: F3983 (penicillin-resistant)
Excerpt: 2.4.2. MIC Tests for the Isolated 23 Chemical Compounds on the PRSP F3983 The following supporting information can be downloaded at: https://www.mdpi.com/article/10.3390/ph16010105/s1; Table S1: Proteome_data sheet; Table S2: UPLC-UV-ESI-Q-TOF/MS analysis of S. cusia leaves; Table S3: NMR of 23 isolated compounds and their MICs against PRSP [69, 70, 71, 72, 73, 74, 75, 76, 77, 78, 79, 80, 81, 82, 83, 84, 85, 86, 87, 88, 89, 90, 91]; Table S4: Reverse-docking_active-pockets; Table S5: Reverse-docking_results_Tryptanthrin; Table S6: LMW-Kinetics-affinity_Tryptanthrin; Table S7: Primers and sequences of bgaA, StrH, SP_2141 and SP_2146 of F3983; Table S8: A scheme of Preparation of Isolated Compounds from S. cusia leaves

[2] = molecular target: T2, SP_2141 (beta-Hexosaminidase) (Streptococcus pneumoniae, UniProt A0A0H2US73); test: SPR (Biacore 8K, CM5 chip, immobilized protein, steady-state affinity); type: binding
T2 construct: recombinant from PRSP F3983 genomic DNA, pET-28a (+) with N-terminal 6 × His tag

[3] = molecular target: T3, SP_2146 (alpha-fucosidase) (Streptococcus pneumoniae, UniProt A0A0H2US78); test: as above; type: binding
T3 construct: recombinant from PRSP F3983 genomic DNA, pET-28a (+) with N-terminal 6 × His tag

[4] = molecular target: StrH (exo-beta-D-N-acetylglucosaminidase) (Streptococcus pneumoniae, UniProt P49610); test: as above; type: binding
StrH (exo-beta-D-N-acetylglucosaminidase), sequence (P49610 626-1064): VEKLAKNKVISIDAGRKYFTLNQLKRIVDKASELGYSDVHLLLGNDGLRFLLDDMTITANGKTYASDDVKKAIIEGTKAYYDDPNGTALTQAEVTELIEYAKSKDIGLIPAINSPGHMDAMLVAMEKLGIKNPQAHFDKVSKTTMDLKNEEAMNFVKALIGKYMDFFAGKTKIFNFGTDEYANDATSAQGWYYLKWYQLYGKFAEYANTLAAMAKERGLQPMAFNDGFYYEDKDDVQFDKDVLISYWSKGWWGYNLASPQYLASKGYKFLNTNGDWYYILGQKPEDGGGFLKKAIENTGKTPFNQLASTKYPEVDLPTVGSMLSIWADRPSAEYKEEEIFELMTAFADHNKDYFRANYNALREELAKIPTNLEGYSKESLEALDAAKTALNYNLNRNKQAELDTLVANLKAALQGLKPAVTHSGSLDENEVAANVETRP

T3 sequence (A0A0H2US78 entry or part of it): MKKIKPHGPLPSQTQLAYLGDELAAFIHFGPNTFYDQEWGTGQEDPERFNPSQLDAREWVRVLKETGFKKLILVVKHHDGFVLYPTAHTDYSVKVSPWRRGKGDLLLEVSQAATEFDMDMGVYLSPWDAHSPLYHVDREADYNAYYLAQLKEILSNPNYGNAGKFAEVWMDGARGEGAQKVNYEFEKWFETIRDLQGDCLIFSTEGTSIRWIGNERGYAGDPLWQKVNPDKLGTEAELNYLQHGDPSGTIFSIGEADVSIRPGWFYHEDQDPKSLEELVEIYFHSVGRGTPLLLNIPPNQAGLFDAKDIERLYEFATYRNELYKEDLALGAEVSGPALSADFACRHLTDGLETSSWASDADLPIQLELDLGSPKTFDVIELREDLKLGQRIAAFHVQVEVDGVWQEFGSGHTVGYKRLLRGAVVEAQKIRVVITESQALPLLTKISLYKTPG
T2 sequence (A0A0H2US73 entry or part of it): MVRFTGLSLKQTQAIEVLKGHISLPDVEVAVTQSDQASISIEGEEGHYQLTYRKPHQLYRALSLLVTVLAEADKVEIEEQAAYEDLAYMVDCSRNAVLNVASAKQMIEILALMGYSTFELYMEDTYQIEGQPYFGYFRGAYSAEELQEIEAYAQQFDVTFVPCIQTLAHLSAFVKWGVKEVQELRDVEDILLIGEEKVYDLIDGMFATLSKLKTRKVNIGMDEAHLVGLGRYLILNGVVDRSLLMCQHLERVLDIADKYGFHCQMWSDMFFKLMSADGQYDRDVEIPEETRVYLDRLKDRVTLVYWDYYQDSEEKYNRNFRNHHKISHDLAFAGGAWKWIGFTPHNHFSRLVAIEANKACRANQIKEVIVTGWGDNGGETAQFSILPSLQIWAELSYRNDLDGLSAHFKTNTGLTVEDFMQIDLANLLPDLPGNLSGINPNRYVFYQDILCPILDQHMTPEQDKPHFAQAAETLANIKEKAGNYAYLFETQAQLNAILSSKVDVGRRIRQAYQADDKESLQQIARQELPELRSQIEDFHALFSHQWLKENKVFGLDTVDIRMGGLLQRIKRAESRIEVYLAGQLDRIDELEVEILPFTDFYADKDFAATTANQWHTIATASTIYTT

| Structure (SMILES) | MIC [1] [mg/L] | also measured |
| --- | --- | --- |
| CC(C)COC(=O)c1ccccc1C(=O)OCC(C)C [compound 7, phthalic acid isodibutyl ester] | > 800 | – |
| O=C1c2ccccc2-n2c1nc1ccccc1c2=O [Tryptanthrin, Indolo(2,1-b)quinazoline-6,12-dione] | – | Kd [2]: 6.43 µM; Kd [3]: 8.82 µM; Kd [4]: 7.16 µM |
| CC(=O)C=CC12OC1(C)CC(O)CC2(C)C (stereo not drawn) [compound 11, 3β-hydroxy-5α,6α-epoxy-7-megastigmen-9-one] | 400 (≈ 1780 µM) | – |
| CC(=O)C=CC1=C(C)CC(O)CC1(C)C (single isomer, unassigned; (-)) [compound 9, (-)-3-hydroxy-β-ionone] | > 800 | – |
| O=C1Cc2ccccc2N1 [compound 4, 1,3-dihydro-2H-indol-2-one] | 400 (≈ 3000 µM) | – |
| CC1(C)C[C@H](O)C[C@@]2(C)OC(=O)C=C12 [compound 12, Calendin] | > 800 | – |
| COC(=O)c1ccccc1NC(=O)c1c[nH]c2ccccc12 [compound 8, cephalandole B] | > 800 | – |
| O=c1c2ccccc2ncn1-c1ccccc1O [compound 13, 3-(2'-hydroxyphenyl)-4(3H)-quinazolinone] | 400 (≈ 1680 µM) | – |
| CCCCCCCC/C=C\CCCCCCCC(N)=O [compound 23, 9(Z)-octadece-nameid] | > 800 | – |
| CC(=O)/C=C/[C@H]1C(C)=C[C@H](O)CC1(C)C [compound 3, (3R,6R,7E)-3-hydroxy-4,7-megastigmadien-9-one] | 400 (≈ 1920 µM) | – |
| NC(=O)c1cccnc1 [compound 21, Nicotinamide] | > 800 | – |
| CC(=O)c1ccc(O)cc1 [compound 19, p-hydroxyacetophenone] | 200 (≈ 1470 µM) | – |
| CC(O)C(=O)Nc1ccccc1O (stereo not shown) [compound 17, 2-hydroxy-N-(2-hydroxyphenyl)propionamide] | > 800 | – |
| COc1cc(C(=O)O)ccc1O [compound 10, 4-hydroxy-5-methoxy-benzoic acid] | > 800 | – |
| COc1c(O)cc2oc(-c3ccc(O)cc3)cc(=O)c2c1O [compound 15, hispidulin] | 200 (≈ 666 µM) | – |
| O=c1c2ccccc2nc2n1CCC2 [compound 20, deoxyvasicinone] | > 800 | – |
| O=C(O)c1ccc(C(=O)O)[nH]1 [compound 5, 1H-pyrrole-2,5-diacarboxylic acid] | 200 (≈ 1290 µM) | – |
| O=C1Nc2ccccc2OC1O (stereo not shown) [compound 16, 2-hydroxy-(2H)-1,4-benzoxazin-3(4H)-one] | > 800 | – |
| CCCCC(CC)COC(=O)c1ccccc1C(=O)OCC(CC)CCCC (stereo not shown) [compound 6, bis(2-ethylhexyl) benzene-1,2-dicarboxylate] | > 800 | – |
| O=Cc1c[nH]c2ccccc12 [compound 14, 1H-indole-3-carboxadehyde] | > 800 | – |
